In brackets after ≈: the same amount, converted by molar mass.
Experiments:
[1] = test system: MCF-7 human breast cancer cells; test: [14C]acetate incorporation into total lipids; format: cell-based; conditions: MCF7
Method: Measurement of [^14 C]acetate Incorporation into Total Lipids and Determination of IC50 of Compounds
This assay measures the incorporation of [^14C]acetate into total lipids and is a measure of fatty acid synthesis pathway activity in vitro. It is utilized to measure inhibition of fatty acid synthesis in vitro.
MCF-7 human breast cancer cells cultured as above, are plated at 5×10^4 cells per well in 24-well plates. Following overnight incubation, the compounds to be tested, solubilized in DMSO, are added at 5, 10, and 20 μg/ml in triplicate, with lower concentrations tested if necessary. DMSO is added to triplicate wells for a vehicle control. C75 is run at 5 and 10 μg/ml in triplicate as positive controls. After 4 hours of incubation, 0.25 μCi of [^14C]acetate (10 μl volume) is added to each well.
After 2 hours of additional incubation, medium is aspirated from the wells and 800 μl of chloroform:methanol (2:1) and 700 μl of 4 mM MgCl2 is added to each well. Contents of each well are transferred to 1.5 Eppendorf tubes, and spun at full-speed for 2 minutes in a high-speed Eppendorf Microcentrifuge 5415D. After removal of the aqueous (upper) layer, an additional 700 μl of chloroform:methanol (2:1) and 500 μl of 4 mM MgCl2 are added to each tube and then centrifuged for 1 minutes as above. The aqueous layer is removed with a Pasteur pipette and discarded. An additional 400 μl of chloroform:methanol (2:1) and 200 μl of 4 mM MgCl2 are added to each tube, then centrifuged and aqueous layer is discarded. The lower (organic) phase is transferred into a scintillation vial and dried at 40° C. under N2 gas. Once dried, 3 ml of scintillant (APB #NBC5104) is added and vials are counted for ^14C. The Beckman Scintillation counter calculates the average cpm values for triplicates.
The IC50 for the compounds is defined as the concentration of drug leading to a 50% reduction in [^14C]acetate incorporation into lipids compared to controls. This is determined by plotting the average cpm for each inhibitor concentration tested, performing linear regression and computing the best-fit line, r^2 values, and 95% confidence intervals. The average cpm values are computed by the Beckman scintillation counter (Model LS6500) for each compound concentration. Computation of linear regression, best-fit line, r^2, and 95% confidence intervals are calculated using Prism Version 3.0 (Graph Pad Software).

[2] = test system: MCF-7 human breast cancer cells; test: XTT cytotoxicity assay, MCF-7 (M); format: cell-based; conditions: Homo sapiens, MCF7; (M) or no code; MCF-7, 72 hours
Method: The XTT assay is a non-radioactive alternative for the [^51Cr] release cytotoxicity assay. XTT is a tetrazolium salt that is reduced to a formazan dye only by metabolically active, viable cells. The reduction of XTT is measured spectrophotometrically as OD490-OD650.
To measure the cytotoxicity of specific compounds against cancer cells, 9×10^3 MCF-7 human breast cancer cells, obtained from the American Type Culture Collection are plated per well in 96 well plates in DMEM medium with 10% fetal bovine serum, insulin, penicillin, and streptomycin. Following overnight culture at 37° C. and 5% CO2, the compounds to be tested, dissolved in DMSO, are added to the wells in 1 μl volume at the following concentrations: 80, 40, 20, 10, 5, 2.5, 1.25, and 0.625 μg/ml in triplicate. Additional concentrations are tested if required. 1 μl of DMSO is added to triplicate wells are the vehicle control. C75 is run at 40, 20, 10, […], 10, and 5 in triplicate as positive controls.
After 72 hours of incubation, cells are incubated for 4 hours with the XTT reagent as per manufacturer's instructions (Cell Proliferation Kit II (XTT) Roche). Plates are read at OD490 and OD650 on a Molecular Devices SpectraMax Plus Spectrophotometer. Three wells containing the XTT reagent without cells serve as the plate blank. XTT data are reported as OD490-OD650. Averages and standard error of the mean are computed using SOFTmax Pro software ([…]).
The IC50 for the compounds is defined as the concentration of drug leading to a 50% reduction in OD400-OD650 compared to controls. The OD400-OD650 are computed by the SOFTmax PRO software (Molecular Devices) for each compound concentration. IC50 is calculated by linear regression, plotting the FAS activity as percent of control versus drug concentrations. Linear regression, best-fit line, r^2, and 95% confidence intervals are determined using Prism Version 3.0 (Graph Pad Software).

[3] = test system: OV; test: XTT cytotoxicity assay, OV; format: cell-based
[4] = test system: H; test: Crystal violet cell growth assay, H; format: cell-based; conditions: read-out: Cr. Violet (IC50)
Method: Crystal Violet Cell Growth Assay
The crystal violet assay measure cell growth but not cytotoxicity. This assay employs crystal violet staining of fixed cells in 96-well plates with subsequent solubilization and measurement of OD490 on a spectrophotometer. The OD490 corresponds to cell growth per unit time measured. Cells are treated with the compounds of interest or vehicle controls and IC50 for each compound is computed.
To measure the cytotoxicity of specific compounds against cancer cells, 5×10^4 MCF-7 human breast cancer cells, obtained from the American Type Culture Collection are plated per well in 24 well plates in DMEM medium with 10% fetal bovine serum, penicillin, and streptomycin. Following overnight culture at 37° C. and 5% CO2, the compounds to be tested, dissolved in DMSO, are added to the wells in 1 μl volume at the following concentrations: 50, 40, 30, 20, and 10 μg/ml in triplicate. Additional concentrations are tested if required. 1 μl of DMSO is added to triplicate wells are the vehicle control. C75 is run at 10, and 5 μg/ml in triplicate as positive controls.
After 72 hours of incubation, cells are stained with 0.5 ml of Crystal Violet stain (0.5% in 25% methanol) in each well. After 10 minutes, wells are rinsed, air dried, and then solubilized with 0.5 ml 10% sodium dodecylsulfate with shaking for 2 hours. Following transfer of 100 μl from each well to a 96-well plate, plates are read at OD490 on a Molecular Devices SpectraMax Plus Spectrophotometer Average OD490 values are computed using SOFTmax Pro Software (Molecular Devices) and IC50 values are determined by linear regression analysis using Prism version 3.02 (Graph Pad Software, San Diego).

[5] = test system: FAO; test: FAO SC 150 / FAO Max; conditions: for FAO Max: at the concentration given under E18

CCCCCCCCC1(C)SC(=O)C=C1OCC(=O)NNc1nc2ccccc2s1 (single isomer, unassigned) [Compound 17, (5-Methyl-5-octyl-2-oxo-thiophen-4-yloxy)-acetic-acid-N′-(2-benzothiazole)-hydrazide]
IC50 [1]: > 80 mg/L | IC50 [2]: 74 mg/L (≈ 165 µM) | IC50 [3]: 38.7 mg/L (≈ 86.5 µM) | IC50 [4]: 17.8 mg/L (≈ 39.8 µM) | FAO Max: concentration at which the maximum was seen [5]: 6.25 µg/mL | FAO SC 150 [5]: 4.9 µg/mL | FAO Max [5]: 167% @

CCCCCCCCC1(C)SC(=O)C=C1OCC(=O)NNc1ccccc1 (stereo not drawn) [Compound 10, (5-Methyl-5-octyl-2-oxo-thiophen-4-yloxy)-acetic-acid-N′-phenylhydrazide]
IC50 [1]: 7.2 mg/L (≈ 18.4 µM) | IC50 [2]: 6.9 mg/L (≈ 17.7 µM) | IC50 [3]: 13.2 mg/L (≈ 33.8 µM) | IC50 [4]: 8.4 mg/L (≈ 21.5 µM) | FAO Max: concentration at which the maximum was seen [5]: 6.25 µg/mL | FAO SC 150 [5]: Neg | FAO Max [5]: 126% at

CCCCCCCCC1(C)SC(=O)C=C1OCC(=O)NNc1cccc(C)c1 (stereo not drawn) [Compound 11, (5-Methyl-5-octyl-2-oxo-thiophen-4-yloxy)-acetic-acid-N′-(3-methylphenyl)-hydrazide]
IC50 [1]: 12 mg/L (≈ 29.7 µM) | IC50 [2]: 9 mg/L (≈ 22.2 µM) | IC50 [3]: 10.1 mg/L (≈ 25 µM) | IC50 [4]: 21.9 mg/L (≈ 54.1 µM) | FAO Max: concentration at which the maximum was seen [5]: 1.56 µg/mL | FAO SC 150 [5]: Neg | FAO Max [5]: 116% @

CCCCCCCCC1(C)SC(=O)C=C1OCC(=O)NNc1ccc(OC)cc1 (stereo not drawn) [Compound 13, (5-Methyl-5-octyl-2-oxo-thiophen-4-yloxy)-acetic-acid-N′-(4-methoxyphenyl)-hydrazide]
IC50 [1]: 21.3 mg/L (≈ 50.6 µM) | IC50 [2]: 9 mg/L (≈ 21.4 µM) | IC50 [3]: 18 mg/L (≈ 42.8 µM) | IC50 [4]: 12.3 mg/L (≈ 29.2 µM) | FAO Max: concentration at which the maximum was seen [5]: 0.098 μg/ml ug/ml | FAO SC 150 [5]: Neg | FAO Max [5]: 103% at

CCCCCCCCC1(C)SC(=O)C=C1OCC(=O)NNc1ccc(Cl)cc1Cl (stereo not drawn) [Compound 14, (5-Methyl-5-octyl-2-oxo-thiophen-4-yloxy)-acetic-acid-N′-(2,4-dichlorophenyl)-hydrazide]
IC50 [1]: 18.3 mg/L (≈ 39.8 µM) | IC50 [2]: 6.9 mg/L (≈ 15 µM) | IC50 [3]: 12.8 mg/L (≈ 27.9 µM) | IC50 [4]: 7.3 mg/L (≈ 15.9 µM) | FAO Max: concentration at which the maximum was seen [5]: 0.098 μg/ml ug/ml | FAO SC 150 [5]: Neg | FAO Max [5]: 100% at

CCCCCCCCC1(C)SC(=O)C=C1OCC(=O)NNc1ccc(Cl)c(Cl)c1 (stereo not drawn) [Compound 15, (5-Methyl-5-octyl-2-oxo-thiophen-4-yloxy)-acetic-acid-N′-(3,4-dichlorophenyl)-hydrazide]
IC50 [1]: 13.3 mg/L (≈ 28.9 µM) | IC50 [2]: 11.4 mg/L (≈ 24.8 µM) | IC50 [3]: 15.2 mg/L (≈ 33.1 µM) | IC50 [4]: 8.5 mg/L (≈ 18.5 µM) | FAO Max: concentration at which the maximum was seen [5]: 0.395 μg/ml ug/ml | FAO SC 150 [5]: Neg | FAO Max [5]: 100% at

Reference: US20100168176A1, “NOVEL COMPOUNDS, PHARMACEUTICAL COMPOSITIONS CONTAINING SAME, AND METHODS OF USE FOR SAME” (FASGEN LLC, priority 2006, published 2010)
